Experimental data: publication doi:10.1101/2021.04.08.439011v1 (biorxiv, 2021)

Tests used:
Details in all cases: 1 µM; binder
ROCK2 = ROCK2 (Homo sapiens, UniProt O75116)
GAK = GAK (Homo sapiens, UniProt O14976)
FLT3 = target: T1, FLT3 (Homo sapiens, UniProt P36888)
T1 sequence (P36888 1-993): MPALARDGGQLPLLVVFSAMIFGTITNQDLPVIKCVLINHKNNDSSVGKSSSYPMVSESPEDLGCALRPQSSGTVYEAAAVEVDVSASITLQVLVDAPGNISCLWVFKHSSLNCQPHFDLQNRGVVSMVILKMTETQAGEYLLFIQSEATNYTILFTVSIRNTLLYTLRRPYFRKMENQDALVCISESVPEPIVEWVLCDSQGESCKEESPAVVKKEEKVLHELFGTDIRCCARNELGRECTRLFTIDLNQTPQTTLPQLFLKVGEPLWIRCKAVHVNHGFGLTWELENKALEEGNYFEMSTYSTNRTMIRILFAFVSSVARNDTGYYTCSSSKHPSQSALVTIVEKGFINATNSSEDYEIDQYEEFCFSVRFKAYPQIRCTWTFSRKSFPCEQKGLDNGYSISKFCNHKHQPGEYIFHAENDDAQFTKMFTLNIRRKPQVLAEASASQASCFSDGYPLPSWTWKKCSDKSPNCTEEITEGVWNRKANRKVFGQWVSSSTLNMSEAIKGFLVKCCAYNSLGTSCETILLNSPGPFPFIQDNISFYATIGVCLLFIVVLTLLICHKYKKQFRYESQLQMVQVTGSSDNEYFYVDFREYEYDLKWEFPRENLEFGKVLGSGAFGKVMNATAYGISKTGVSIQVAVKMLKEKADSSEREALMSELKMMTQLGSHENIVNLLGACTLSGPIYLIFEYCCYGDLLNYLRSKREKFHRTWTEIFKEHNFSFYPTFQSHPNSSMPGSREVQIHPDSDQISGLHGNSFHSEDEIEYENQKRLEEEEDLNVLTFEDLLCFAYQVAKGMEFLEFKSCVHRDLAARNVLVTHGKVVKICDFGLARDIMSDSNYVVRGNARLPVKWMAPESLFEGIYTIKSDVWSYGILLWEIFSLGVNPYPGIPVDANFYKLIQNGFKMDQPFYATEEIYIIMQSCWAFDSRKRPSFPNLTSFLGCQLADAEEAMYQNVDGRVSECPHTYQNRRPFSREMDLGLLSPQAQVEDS

EPHA1 = EPHA1 (Homo sapiens, UniProt P21709)
SGK = SGK (Homo sapiens, UniProt O00141)
SNARK = SNARK (Homo sapiens, UniProt Q9H093)
Chain of SNARK (Q9H093 whole entry): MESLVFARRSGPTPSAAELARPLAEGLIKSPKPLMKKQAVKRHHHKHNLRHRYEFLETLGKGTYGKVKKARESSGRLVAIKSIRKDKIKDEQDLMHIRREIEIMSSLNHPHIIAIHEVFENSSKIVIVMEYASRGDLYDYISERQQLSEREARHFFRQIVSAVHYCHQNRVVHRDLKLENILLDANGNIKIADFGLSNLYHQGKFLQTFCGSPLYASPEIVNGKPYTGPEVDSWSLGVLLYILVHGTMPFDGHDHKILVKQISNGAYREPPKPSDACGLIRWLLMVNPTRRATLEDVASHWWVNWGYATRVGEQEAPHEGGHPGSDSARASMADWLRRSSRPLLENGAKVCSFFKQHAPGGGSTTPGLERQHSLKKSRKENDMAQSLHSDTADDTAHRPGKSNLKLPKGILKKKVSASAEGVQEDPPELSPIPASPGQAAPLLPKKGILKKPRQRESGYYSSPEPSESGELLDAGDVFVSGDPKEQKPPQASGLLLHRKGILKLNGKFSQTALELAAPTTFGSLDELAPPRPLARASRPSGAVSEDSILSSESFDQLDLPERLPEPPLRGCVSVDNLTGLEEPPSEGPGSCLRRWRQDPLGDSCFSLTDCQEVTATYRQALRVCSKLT

PCTK2 = PCTK2 (Homo sapiens, UniProt Q00537)
Chain of PCTK2 (Q00537 whole entry): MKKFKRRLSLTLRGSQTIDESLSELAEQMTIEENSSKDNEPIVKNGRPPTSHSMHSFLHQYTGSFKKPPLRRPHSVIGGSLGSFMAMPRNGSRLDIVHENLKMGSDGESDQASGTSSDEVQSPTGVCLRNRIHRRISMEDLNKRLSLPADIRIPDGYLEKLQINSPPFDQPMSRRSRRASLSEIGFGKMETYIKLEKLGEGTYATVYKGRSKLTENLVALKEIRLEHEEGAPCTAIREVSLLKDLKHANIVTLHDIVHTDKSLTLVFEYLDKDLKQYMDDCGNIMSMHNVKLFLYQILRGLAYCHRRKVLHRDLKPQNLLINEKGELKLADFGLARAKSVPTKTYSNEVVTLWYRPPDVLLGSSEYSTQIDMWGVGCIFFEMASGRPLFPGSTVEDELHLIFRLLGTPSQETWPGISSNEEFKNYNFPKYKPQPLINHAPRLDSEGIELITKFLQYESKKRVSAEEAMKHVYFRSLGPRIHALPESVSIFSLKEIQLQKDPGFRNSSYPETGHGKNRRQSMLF

ERK3 = ERK3 (Homo sapiens, UniProt Q16659)
PIK3CG = PIK3CG (Homo sapiens, UniProt P48736)
PIK3CA(E542K) = PIK3CA(E542K) (Homo sapiens, UniProt P42336, E542K)
Chain of PIK3CA(E542K) (P42336 whole entry E542K): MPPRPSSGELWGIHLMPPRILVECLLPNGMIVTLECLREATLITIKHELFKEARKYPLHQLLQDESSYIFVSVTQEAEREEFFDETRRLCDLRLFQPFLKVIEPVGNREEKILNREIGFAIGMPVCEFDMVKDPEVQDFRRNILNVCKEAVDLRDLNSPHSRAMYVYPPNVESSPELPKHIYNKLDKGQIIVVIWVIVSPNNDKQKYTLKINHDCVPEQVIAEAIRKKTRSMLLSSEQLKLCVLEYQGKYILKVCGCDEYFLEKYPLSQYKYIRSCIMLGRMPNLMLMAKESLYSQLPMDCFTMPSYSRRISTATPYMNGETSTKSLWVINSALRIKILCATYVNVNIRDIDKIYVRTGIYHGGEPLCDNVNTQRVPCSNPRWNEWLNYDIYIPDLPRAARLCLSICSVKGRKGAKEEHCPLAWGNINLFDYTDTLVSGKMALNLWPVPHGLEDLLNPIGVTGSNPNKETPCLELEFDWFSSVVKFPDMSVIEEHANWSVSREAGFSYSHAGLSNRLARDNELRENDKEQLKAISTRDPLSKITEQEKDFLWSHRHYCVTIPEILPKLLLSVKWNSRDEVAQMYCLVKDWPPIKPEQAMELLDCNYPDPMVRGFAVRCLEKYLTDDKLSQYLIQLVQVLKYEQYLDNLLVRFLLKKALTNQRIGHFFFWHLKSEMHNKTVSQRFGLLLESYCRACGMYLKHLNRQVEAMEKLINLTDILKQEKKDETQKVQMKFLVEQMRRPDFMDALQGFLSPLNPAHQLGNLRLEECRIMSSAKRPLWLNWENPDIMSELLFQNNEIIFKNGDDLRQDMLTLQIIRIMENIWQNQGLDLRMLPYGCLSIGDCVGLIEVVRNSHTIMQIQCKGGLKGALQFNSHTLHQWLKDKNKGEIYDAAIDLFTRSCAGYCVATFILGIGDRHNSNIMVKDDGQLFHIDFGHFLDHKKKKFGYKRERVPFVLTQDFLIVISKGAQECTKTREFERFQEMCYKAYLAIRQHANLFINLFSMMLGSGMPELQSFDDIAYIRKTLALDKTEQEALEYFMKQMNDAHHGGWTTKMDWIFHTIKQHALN

DRAK1 = DRAK1 (Homo sapiens, UniProt Q9UEE5)
MAST1 = MAST1 (Homo sapiens, UniProt Q9Y2H9)
HIPK1 = HIPK1 (Homo sapiens, UniProt Q86Z02)
Chain of HIPK1 (Q86Z02 whole entry): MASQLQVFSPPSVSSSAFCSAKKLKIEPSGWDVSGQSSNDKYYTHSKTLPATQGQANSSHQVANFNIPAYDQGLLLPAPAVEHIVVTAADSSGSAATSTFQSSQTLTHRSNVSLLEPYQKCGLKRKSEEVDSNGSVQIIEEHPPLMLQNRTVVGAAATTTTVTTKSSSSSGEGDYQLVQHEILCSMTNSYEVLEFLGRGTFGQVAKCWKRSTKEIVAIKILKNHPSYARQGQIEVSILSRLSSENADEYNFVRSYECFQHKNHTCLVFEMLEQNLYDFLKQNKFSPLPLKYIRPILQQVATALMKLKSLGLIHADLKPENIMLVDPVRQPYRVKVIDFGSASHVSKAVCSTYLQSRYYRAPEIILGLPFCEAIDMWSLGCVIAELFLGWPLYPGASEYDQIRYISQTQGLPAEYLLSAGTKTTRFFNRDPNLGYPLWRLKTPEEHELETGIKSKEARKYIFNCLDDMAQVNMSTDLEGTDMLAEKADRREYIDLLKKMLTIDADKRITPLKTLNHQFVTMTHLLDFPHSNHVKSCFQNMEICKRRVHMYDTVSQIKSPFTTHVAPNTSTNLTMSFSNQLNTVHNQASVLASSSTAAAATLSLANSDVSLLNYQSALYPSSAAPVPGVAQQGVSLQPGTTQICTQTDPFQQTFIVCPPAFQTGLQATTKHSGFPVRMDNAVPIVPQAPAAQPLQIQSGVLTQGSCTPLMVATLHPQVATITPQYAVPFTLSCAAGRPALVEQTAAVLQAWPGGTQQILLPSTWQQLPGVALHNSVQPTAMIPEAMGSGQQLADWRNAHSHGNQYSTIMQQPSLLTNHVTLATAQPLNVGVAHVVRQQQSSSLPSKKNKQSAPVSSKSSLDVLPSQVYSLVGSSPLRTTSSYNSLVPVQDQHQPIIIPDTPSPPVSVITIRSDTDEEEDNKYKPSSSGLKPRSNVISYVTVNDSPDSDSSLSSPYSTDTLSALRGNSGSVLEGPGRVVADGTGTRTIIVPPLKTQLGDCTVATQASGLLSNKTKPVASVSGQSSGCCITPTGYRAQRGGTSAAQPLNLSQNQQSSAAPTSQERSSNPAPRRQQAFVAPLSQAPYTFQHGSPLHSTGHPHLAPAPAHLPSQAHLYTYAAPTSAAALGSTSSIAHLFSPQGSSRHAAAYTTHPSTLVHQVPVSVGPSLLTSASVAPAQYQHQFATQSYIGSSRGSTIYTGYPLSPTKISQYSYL

PAK7 = PAK7 (Homo sapiens, UniProt Q9P286)
PIK3CA(I800L) = PIK3CA(I800L) (Homo sapiens, UniProt P42336, I800L)
Chain of PIK3CA(I800L) (P42336 whole entry I800L): as the sequence (P42336 whole entry E542K) above, with K542E, I800L counted along it

PNCK = PNCK (Homo sapiens, UniProt Q6P2M8)
ACVR1B = ACVR1B (Homo sapiens, UniProt P36896)
Chain of ACVR1B (P36896 whole entry): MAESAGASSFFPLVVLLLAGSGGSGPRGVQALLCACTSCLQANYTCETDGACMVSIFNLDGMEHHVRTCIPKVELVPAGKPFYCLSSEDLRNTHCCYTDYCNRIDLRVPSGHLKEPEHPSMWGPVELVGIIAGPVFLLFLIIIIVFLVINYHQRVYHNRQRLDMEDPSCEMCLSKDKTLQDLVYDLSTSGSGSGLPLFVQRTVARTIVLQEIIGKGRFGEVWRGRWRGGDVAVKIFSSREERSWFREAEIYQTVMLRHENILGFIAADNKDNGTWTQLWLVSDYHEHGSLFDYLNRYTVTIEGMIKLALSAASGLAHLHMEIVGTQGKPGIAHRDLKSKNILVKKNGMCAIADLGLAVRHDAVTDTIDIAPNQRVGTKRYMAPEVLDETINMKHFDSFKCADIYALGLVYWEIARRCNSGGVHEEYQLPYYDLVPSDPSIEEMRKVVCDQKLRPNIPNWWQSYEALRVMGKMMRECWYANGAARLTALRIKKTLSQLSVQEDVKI

DMPK = DMPK (Homo sapiens, UniProt Q09013)
DYRK1A = DYRK1A (Homo sapiens, UniProt Q13627)
AKT1 = AKT1 (Homo sapiens, UniProt P31749)
Chain of AKT1 (P31749 whole entry): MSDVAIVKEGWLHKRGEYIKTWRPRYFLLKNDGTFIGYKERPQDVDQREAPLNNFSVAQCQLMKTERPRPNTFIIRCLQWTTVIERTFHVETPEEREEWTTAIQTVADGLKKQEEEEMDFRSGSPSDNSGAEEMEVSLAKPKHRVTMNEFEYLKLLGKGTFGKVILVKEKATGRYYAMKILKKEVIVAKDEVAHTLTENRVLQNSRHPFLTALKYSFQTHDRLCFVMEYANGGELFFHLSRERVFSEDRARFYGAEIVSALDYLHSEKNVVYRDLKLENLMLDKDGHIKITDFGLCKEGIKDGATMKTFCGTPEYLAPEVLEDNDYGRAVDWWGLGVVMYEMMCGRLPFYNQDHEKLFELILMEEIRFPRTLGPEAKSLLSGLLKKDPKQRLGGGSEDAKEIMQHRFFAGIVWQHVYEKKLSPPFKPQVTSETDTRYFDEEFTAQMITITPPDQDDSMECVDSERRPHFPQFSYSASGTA

FLT3(ITD,F691L) = FLT3(ITD,F691L) (Homo sapiens, UniProt P36888, F691L/ITD)
Chain of FLT3(ITD,F691L) (P36888 564-993 F691L): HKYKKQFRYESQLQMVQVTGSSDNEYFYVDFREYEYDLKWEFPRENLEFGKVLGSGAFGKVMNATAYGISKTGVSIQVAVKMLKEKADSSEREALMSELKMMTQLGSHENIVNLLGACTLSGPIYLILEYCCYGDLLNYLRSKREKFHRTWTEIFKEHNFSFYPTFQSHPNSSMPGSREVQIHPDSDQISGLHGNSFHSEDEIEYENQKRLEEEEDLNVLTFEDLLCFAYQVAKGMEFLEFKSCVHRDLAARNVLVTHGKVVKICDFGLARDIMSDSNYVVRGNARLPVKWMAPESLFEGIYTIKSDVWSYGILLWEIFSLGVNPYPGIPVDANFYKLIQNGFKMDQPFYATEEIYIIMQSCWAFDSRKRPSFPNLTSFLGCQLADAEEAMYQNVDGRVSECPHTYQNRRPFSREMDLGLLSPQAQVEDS

## CNc1ncc2cc(-c3ccc(-c4cccc(C)n4)cc3Cl)c(=O)n(C[C@H]3OC[C@H](N)CO3)c2n1 [compound 6, G-5555]
ROCK2
  Percent Control: 90%
GAK
  Percent Control: 1.7%
FLT3
  Percent Control: 100%
EPHA1
  Percent Control: 34%
SGK
  Percent Control: 100%
SNARK
  Percent Control: 2%
PCTK2
  Percent Control: 100%
ERK3
  Percent Control: 100%
PIK3CG
  Percent Control: 93%
PIK3CA(E542K)
  Percent Control: 100%
DRAK1
  Percent Control: 100%
MAST1
  Percent Control: 0.4%
HIPK1
  Percent Control: 100%
PAK7
  Percent Control: 82%
PIK3CA(I800L)
  Percent Control: 100%
PNCK
  Percent Control: 30%
ACVR1B
  Percent Control: 96%
DMPK
  Percent Control: 100%
DYRK1A
  Percent Control: 100%
AKT1
  Percent Control: 100%
FLT3(ITD,F691L)
  Percent Control: 43%
